≈ marks a conversion by molar mass, not a printed value. Where “and” joins values, the source holds several entries; their conditions need not be identical. Equal entries are not always repeated.
What was measured:
Assay in all cases: ≥ marks a high value that may be exact or a test limit, other limits are often not marked, values filed in µg/mL are converted to µM
[1] = system: Candida albicans ATCC 90028
[2] = system: Staphylococcus aureus ATCC 25923
[3] = system: Escherichia coli ATCC 25922
[4] = system: Pseudomonas aeruginosa ATCC 9027
[5] = system: Staphylococcus aureus ATCC 6538
[6] = system: Staphylococcus aureus ATCC 29213
[7] = system: Pseudomonas aeruginosa ATCC 27853
[8] = system: Staphylococcus epidermidis ATCC 12228
Escherichia coli = system: Escherichia coli
Staphylococcus aureus = system: Staphylococcus aureus
Pseudomonas aeruginosa = system: Pseudomonas aeruginosa
[9] = system: Staphylococcus aureus ATCC 43300
[10] = system: Enterococcus faecalis ATCC 29212

CC[C@H](C)[C@H](NC(=O)[C@@H]1CCCN1C(=O)[C@H](CC(C)C)NC(=O)[C@@H](N)Cc1ccccc1)C(=O)N[C@@H](CC(C)C)C(=O)NCC(=O)N[C@@H](CCCCN)C(=O)N[C@@H](CC(C)C)C(=O)N[C@@H](CC(C)C)C(=O)N[C@@H](CO)C(=O)NCC(=O)N[C@@H](Cc1ccccc1)C(=O)N[C@@H](CC(C)C)C(N)=O [FLPILGKLLSGFL]
MIC [1]: ≥ 80 µM | MIC [2]: 10 µM (≈ 14.2 µg/mL) | MIC [3]: > 160 µM

CC(C)C[C@H](NC(=O)[C@H](C)NC(=O)[C@H](Cc1ccccc1)NC(=O)[C@H](CCCCN)NC(=O)[C@H](CCCCN)NC(=O)[C@H](C)NC(=O)[C@H](CC(C)C)NC(=O)[C@H](CCCCN)NC(=O)[C@H](C)NC(=O)[C@H](Cc1ccccc1)NC(=O)[C@H](CC(C)C)NC(=O)[C@H](CCCCN)NC(=O)[C@H](C)NC(=O)[C@@H](N)Cc1ccccc1)C(N)=O [FAKLFAKLAKKFAL]
MIC [4]: > 125 µM | MIC [5]: 31.3 µM (≈ 50 µg/mL)

CC[C@H](C)[C@H](NC(=O)[C@H](CCCCN)NC(=O)[C@H](C)NC(=O)[C@@H](N)CCC(N)=O)C(=O)N[C@@H](CCCN=C(N)N)C(=O)N[C@H](C(=O)N[C@@H](CCCN=C(N)N)C(=O)N[C@@H](CC(C)C)C(=O)N[C@@H](CO)C(=O)N[C@@H](C)C(=O)O)C(C)C [QAKIRVRLSA]
MIC [6]: > 56.1 µM | MIC [3]: 112 µM (≈ 128 µg/mL) | MIC [7]: 28 µM (≈ 32 µg/mL)

CC(C)C[C@H](NC(=O)[C@H](CC(C)C)NC(=O)[C@H](CCCCN)NC(=O)[C@H](CCCCN)NC(=O)[C@H](C)NC(=O)[C@H](CC(C)C)NC(=O)[C@H](CCCCN)NC(=O)[C@H](C)NC(=O)[C@H](CC(C)C)NC(=O)[C@H](CC(C)C)NC(=O)[C@H](CCCCN)NC(=O)[C@H](C)NC(=O)[C@@H](N)C(C)C)C(N)=O [VAKLLAKLAKKLL]
MIC [4]: 3.55 µM (≈ 5 µg/mL) | MIC [5]: 3.55 µM (≈ 5 µg/mL)

CC[C@H](C)[C@H](NC(=O)CN)C(=O)N[C@@H](CCCCN)C(=O)N[C@@H](CCCCN)C(=O)N[C@@H](Cc1c[nH]c2ccccc12)C(=O)N1CCC[C@H]1C(=O)N[C@@H](Cc1cnc[nH]1)C(=O)N[C@@H](CCCCN)C(=O)N1CCC[C@H]1C(=O)N[C@@H](CCCCN)C(=O)N[C@@H](CCCCN)C(=O)N[C@@H](Cc1ccccc1)C(=O)NCC(=O)N[C@@H](CCCCN)C(=O)N[C@@H](CCCCN)C(=O)N[C@@H](Cc1ccccc1)C(=O)N[C@H](C(=O)N[C@@H](CCCCN)C(=O)N[C@@H](CCCCN)C(=O)N[C@H](C(=O)N[C@@H](CCCCN)C(=O)N[C@@H](CCCCN)C(=O)N[C@@H](CO)C(N)=O)[C@@H](C)CC)C(C)C [GIKKWPHKPKKFGKKFVKKIKKS]
MIC [8]: 5 µM (≈ 13.8 µg/mL) | MIC [3]: 10 µM (≈ 27.7 µg/mL)

CC[C@H](C)[C@H](NC(=O)CNC(=O)[C@H](CO)NC(=O)[C@H](CC(C)C)NC(=O)[C@@H](NC(=O)CN)[C@@H](C)CC)C(=O)N[C@@H](CC(C)C)C(=O)NCC(=O)N[C@@H](C)C(=O)NCC(=O)N[C@@H](CCCCN)C(=O)N[C@@H](CO)C(=O)N[C@@H](CC(C)C)C(=O)N[C@H](C(=O)N[C@H]1CSSC[C@@H](C(=O)O)NC(=O)[C@H](CC(C)C)NC(=O)CNC(=O)[C@H](CO)NC(=O)[C@H](CC(C)C)NC(=O)CNC1=O)C(C)C [GILSGILGAGKSLVCGLSGLC]
MIC (Escherichia coli): 50 µM (≈ 95.8 µg/mL) | MIC (Staphylococcus aureus): > 100 µM

CC[C@H](C)[C@H](NC(=O)CNC(C)=O)C(=O)NCC(=O)N[C@@H](CCCCN)C(=O)N[C@@H](Cc1ccccc1)C(=O)N[C@@H](CC(C)C)C(=O)N[C@@H](Cc1cnc[nH]1)C(=O)N[C@@H](CO)C(=O)N[C@@H](C)C(=O)N[C@@H](CCCCN)C(=O)N[C@@H](CCCCN)C(=O)N[C@@H](Cc1ccccc1)C(=O)NCC(=O)N[C@@H](CCCCN)C(=O)N[C@@H](C)C(=O)N[C@@H](Cc1ccccc1)C(=O)N[C@H](C(=O)NCC(=O)N[C@@H](CCC(N)=O)C(=O)N[C@H](C(=O)N[C@@H](CCSC)C(=O)N[C@@H](CC(N)=O)C(=O)N[C@@H](CO)C(N)=O)[C@@H](C)CC)C(C)C [GIGKFLHSAKKFGKAFVGQIMNS]
MIC [8]: 20 µM (≈ 50.1 µg/mL) | MIC [3]: 20 µM (≈ 50.1 µg/mL)

NCC(=O)N[C@@H](CCCN=C(N)N)C(=O)N[C@@H](CCCN=C(N)N)C(=O)N1CCC[C@H]1C(=O)N[C@@H](CCCN=C(N)N)C(=O)N1CCC[C@H]1C(=O)N[C@@H](CCCN=C(N)N)C(=O)N1CCC[C@H]1C(=O)N[C@@H](CCCN=C(N)N)C(=O)N1CCC[C@H]1C(=O)N[C@@H](Cc1ccccc1)C(=O)N[C@@H](Cc1ccccc1)C(=O)N[C@@H](Cc1ccccc1)C(N)=O [GRRPRPRPRPFFF]
MIC [6]: 40 µM (≈ 67.4 µg/mL) | MIC [3]: 160 µM (≈ 270 µg/mL) | MIC [7]: > 160 µM

NCCCC[C@H](NC(=O)[C@H](CCCCN)NC(=O)[C@H](CCCN=C(N)N)NC(=O)[C@H](CCCN=C(N)N)NC(=O)[C@H](Cc1c[nH]c2ccccc12)NC(=O)[C@H](Cc1c[nH]c2ccccc12)NC(=O)[C@H](CCCN=C(N)N)NC(=O)[C@H](CCCCN)NC(=O)[C@H](CCCCN)NC(=O)[C@@H](N)CCCN=C(N)N)C(N)=O [RKKRWWRRKK]
MIC (Escherichia coli): 3 µM and 6 µM | MIC [2]: 3 µM and 6 µM

CC[C@H](C)[C@H](N)C(=O)N[C@H](C(=O)N[C@@H](CCCN=C(N)N)C(=O)N[C@H](C(=O)N[C@@H](C)C(=O)N[C@H](C(=O)N[C@@H](C)C(=O)N[C@@H](CC(C)C)C(=O)N[C@@H](CCCN=C(N)N)C(=O)N[C@@H](CCCN=C(N)N)C(=O)N[C@H](C(=O)N[C@@H](CCCN=C(N)N)C(N)=O)[C@@H](C)CC)C(C)C)C(C)C)C(C)C [IVRVAVALRRIR]
MIC (Pseudomonas aeruginosa): 51.3 µM (≈ 73 µg/mL)

CC[C@H](C)[C@H](NC(=O)CNC(=O)CNC(=O)[C@H](CC(C)C)NC(=O)[C@H](CC(C)C)NC(=O)[C@H](CO)NC(=O)CNC(=O)[C@@H](NC(=O)[C@H](CC(C)C)NC(=O)[C@@H](N)CC(N)=O)C(C)C)C(=O)N[C@@H](CC(C)C)C(=O)N[C@@H](CCCCN)C(=O)N[C@@H](CCCCN)C(N)=O [NLVGSLLGGILKK]
MIC [6]: > 534 µM | MIC [3]: 457 µM (≈ 600 µg/mL)

CC[C@H](C)[C@H](NC(=O)CN)C(=O)N[C@@H](CCSC)C(=O)N[C@@H](CC(=O)O)C(=O)N[C@H](C(=O)N[C@H](C(=O)N[C@@H](CCCCN)C(=O)NCC(=O)N[C@@H](C)C(=O)N[C@@H](C)C(=O)N[C@@H](CCCCN)C(=O)N[C@@H](CC(=O)O)C(=O)N[C@@H](CC(C)C)C(=O)N[C@@H](C)C(=O)NCC(=O)N[C@@H](CCC(N)=O)C(=O)N[C@@H](CC(C)C)C(=O)N[C@@H](CC(C)C)C(=O)N[C@@H](CC(=O)O)C(=O)N[C@@H](CCCCN)C(=O)N[C@@H](CC(C)C)C(=O)N[C@@H](CCCCN)C(=O)N[C@H]1CSSC[C@@H](C(=O)O)NC(=O)[C@H](CCCCN)NC(=O)[C@H]([C@@H](C)O)NC(=O)[C@H]([C@@H](C)CC)NC(=O)[C@H](CCCCN)NC1=O)[C@@H](C)CC)[C@@H](C)O [GIMDTIKGAAKDLAGQLLDKLKCKITKC]
MIC [1]: ≥ 150 µM | MIC [2]: > 150 µM | MIC [3]: 75 µM (≈ 223 µg/mL)

CC(C)C[C@H](NC(=O)[C@H](CCCCN)NC(=O)CNC(=O)[C@H](C)NC(=O)[C@H](CC(C)C)NC(=O)[C@H](CCCCN)NC(=O)[C@H](C)NC(=O)[C@H](CC(C)C)NC(=O)[C@H](CCCCN)NC(=O)CNC(=O)[C@H](C)NC(=O)[C@H](Cc1c[nH]c2ccccc12)NC(=O)[C@H](CCCCN)NC(=O)[C@H](C)NC(=O)[C@H](CC(C)C)NC(=O)[C@H](CCCCN)NC(=O)CNC(=O)[C@H](C)NC(=O)[C@H](CC(C)C)NC(=O)[C@@H](N)CCCCN)C(=O)N[C@@H](C)C(N)=O [KLAGKLAKWAGKLAKLAGKLA]
MIC (Escherichia coli): 3.74 µM (≈ 8 µg/mL) | MIC (Staphylococcus aureus): 3.74 µM (≈ 8 µg/mL) | MIC (Pseudomonas aeruginosa): 7.49 µM (≈ 16 µg/mL)

CC[C@H](C)[C@H](NC(=O)CN)C(=O)NCC(=O)N[C@@H](C)C(=O)N[C@H](C(=O)N[C@@H](CC(C)C)C(=O)N[C@@H](CCCCN)C(=O)N[C@H](C(=O)N[C@@H](CC(C)C)C(=O)N[C@H](C(=O)N[C@H](C(=O)NCC(=O)N[C@@H](CC(C)C)C(=O)N[C@@H](CS)C(=O)N[C@@H](C)C(=O)N[C@@H](CC(C)C)C(=O)N[C@H](C(=O)N[C@@H](CO)C(=O)N[C@@H](Cc1c[nH]c2ccccc12)C(=O)N[C@H](C(=O)N[C@@H](CCCCN)C(=O)N[C@@H](CCCN=C(N)N)C(=O)N[C@@H](CCCCN)C(=O)N[C@@H](CCCN=C(N)N)C(=O)N[C@@H](CCC(N)=O)C(=O)N[C@@H](CCC(N)=O)C(=O)O)[C@@H](C)CC)[C@@H](C)CC)[C@@H](C)O)[C@@H](C)O)C(C)C)C(C)C [GIGAVLKVLTTGLCALISWIKRKRQQ]
MIC [6]: 62.5 µM (≈ 178 µg/mL) | MIC [9]: 62.5 µM (≈ 178 µg/mL) | MIC [3]: 62.5 µM (≈ 178 µg/mL) | MIC [7]: 62.5 µM (≈ 178 µg/mL)

CC[C@H](C)[C@H](NC(=O)CNC(=O)[C@H](CCCCN)NC(=O)[C@H](CC(C)C)NC(=O)[C@H](CCSC)NC(=O)[C@H](CC(N)=O)NC(=O)[C@H](CCCCN)NC(=O)[C@H](Cc1c[nH]c2ccccc12)NC(=O)[C@H](CC(C)C)NC(=O)[C@H](C)N)C(=O)NCC(=O)N[C@@H](CCCCN)C(=O)N[C@@H](CC(C)C)C(=O)N[C@@H](C)C(=O)NCC(=O)N[C@@H](CCC(N)=O)C(=O)N[C@@H](C)C(=O)N[C@@H](C)C(=O)N[C@@H](CC(C)C)C(=O)NCC(=O)N[C@@H](C)C(=O)N[C@H](C(=O)N[C@@H](CCCCN)C(=O)N[C@H](C(=O)N[C@@H](CC(C)C)C(=O)N[C@H](C(=O)NCC(=O)N[C@@H](C)C(=O)N[C@@H](CCC(=O)O)C(=O)N[C@@H](CO)C(=O)O)C(C)C)[C@@H](C)O)C(C)C [ALWKNMLKGIGKLAGQAALGAVKTLVGAES]
MIC [2]: 2.7 µM (≈ 8.09 µg/mL) | MIC [3]: 1.3 µM (≈ 3.9 µg/mL) | MIC [10]: 22 µM (≈ 65.9 µg/mL) | MIC [7]: 5.4 µM (≈ 16.2 µg/mL)

Reference: DBAASP
